Test results: patent publication US7772192B2, “Compositions and methods for treatment of disease with acetylated disaccharides” (The Regents of the University of California, priority 2003, dated 2010)

Tests used:
[1] = test system: U937 cells; assay: sLe^X expression in U937 cells; assay type: cell-based
Excerpt: A 4-deoxy modified acetylated disaccharide inhibits sLe^X expression in the absence of oligosaccharide priming.

[2] = test system: LLC cells adhering to recombinant P-selectin; assay: Adhesion of LLC cells to immobilized P-selectin; assay type: cell-based
Excerpt: LLC cells were “panned” onto wells precoated with recombinant P-selectin (R&D Systems, Minneapolis, M) as described (Brown et al., 2003; Fuster et al., Cancer Research 63: 2775-2781, 2003). The extent of adhesion was normalized to the value obtained for cells not treated with disaccharide. Controls included sialidase and anti-Ps monoclonal antibody treatment.

[3] = Blood cell counts; assay type: in vivo
[4] = test system: LS180 cells; assay: Metastatic lung tumor formation in SCID mice (LS180); assay type: in vivo
Experimental: Tumor formation. LS180 cells were grown in the presence or absence of 50 μM AcGnG-NM for 6 days, harvested with EDTA, and resuspended in sterile PBS. Approximately 3×10^5 tumor cells in 150 μl PBS were injected into the lateral tail vein of anesthetized 7 week-old immunodeficient mice (Fox Chase SCID; Charles River). The mice were then maintained in microbe-free housing with free access to standard laboratory chow and water, and inspected regularly for any signs of distress. After 4 weeks, mice were euthanized by CO2 asphyxiation under anesthesia, and lungs, livers, brains, kidneys/adrenals, and spleens were fixed in Bouin's solution (Sigma) for 6 hr followed by transfer to 70% ethanol. Lungs for each animal were inspected under a dissecting microscope for the total number of surface tumors. Histologic sections (hematoxylin/eosin) were examined for tumor foci, and representative photomicrographs were taken. The other organs were also reviewed histologically for any tumor foci.
Impairment of metastatic tumor formation. Prior studies have shown that deletion of P-selectin in mice alters the tumorigenicity of hematogenously distributed LS180 cells. Kim et al., Proc. Natl. Acad. Sci. USA, 95: 9325-9330, 1998. […] After 4 weeks, the animals were sacrificed and formation of lung tumor foci was assessed at necropsy by counting nodules on the lung surface and in histologic sections.

[5] = test system: LS180 cells adhering to recombinant P-selectin; assay: Cell adhesion to immobilized P-selectin; assay type: cell-based, human; conditions: LS180 cells grown 5 days with disaccharide
Experimental: Cell adhesion to immobilized selectins. 96-well plates were coated overnight at 4° C. with recombinant E-selectin (4 μg/ml) or P-selectin (2 μg/ml) (R & D Systems) and blocked with 1% BSA/PBS. LS180 cells were grown for 5 days with various amounts of acetylated disaccharide, harvested, labeled with Calcein AM (5 μM, Molecular Probes) in DMEM/1% FBS, and allowed to settle at room temperature on selectin-coated wells (5×10^4 cells/well). Plates were then stirred at 75 rpm for 30 min (Orbit shaker, Lab-Line Instruments) followed by immersion upside-down in a vessel filled with Hank's buffered saline solution (HBSS, Sigma), which allowed non-adherent cells to fall under gravity. St John et al., J. Immunol Methods, 170: 159-166, 1994. The wells were then washed by aspiration using HBSS. LS180 cells were less adherent to P-selectin, so the immersion step was not necessary prior to washing. […] Fluorescence was measured using a 96-well fluorimeter (CytoFluor II), and the average of triplicate measurements was determined±standard error. Cell viability was judged to be >90% by Trypan blue exclusion at the end of each experiment.
Adhesion to selectins is altered in disaccharide-treated tumor cells. Treatment of LS180 cells with AcGnG-NM was not toxic to the cells up to 100 μM based on growth curves and exclusion of Trypan blue. […]

[6] = test system: sialyl Lewis X in HL-60, LS180, murine Lewis lung carcinoma, B16 murine melanoma cells; assay: Inhibition of sialyl Lewis X formation in cultured cells; assay type: cell-based
Excerpt: The disaccharides can be acylated with, e.g., acetyl, butyryl or benzoyl groups to reduce their hydrophilicity and make them permeable to cell membranes. […] The various disaccharides described above and their acylated or aryl derivatives are logical extensions of the present invention. In addition, analogs of the above compounds in which critical hydroxyl groups are missing or alkylated would bind to glycosyltransfersase and inhibit their activity.

[7] = test system: LLC cells; assay: Spontaneous tumor metastasis of LLC cells, compound by osmotic pump; assay type: in vivo, mice; conditions: ~1 mg/day/mouse, 4 weeks
Experimental: Osmotic pumps (ref 4) containing vehicle or peracetylated GlcNAcβ3Gal-NM were surgically implanted in a dorsal skin fold of Es1(e) mice and LLC cells (5×10^5) were implanted subcutaneously in the hindquarter. The dose rate of compound was ˜1 mg/day/mouse. Panel A. To detect tumor cells in the lungs, after 4 weeks each animal was injected intraperitoneally with 1 mg of BrdU (bromodeoxyuridine (BrdU), which is taken up by dividing cells—tumor cells, and therefore indicates the quantity of tumor cells in the lungs when cells from the lungs are stained with anti-BrdU antibodies). The animals were sacrificed, the heart was perfused with PBS and the lungs removed. Each lung was incubated with collagenase (10 mg/ml, 1 h, 37° C.), syringed through an 18-gauge needle and filtered through a […] nylon filter, and cells were fixed (70% ethanol, 1×10^6 cells/ml). The relative number of BrdU-labeled cells in the lungs was determined by flow cytometry (FACS) using a mouse anti-BrdU-FITC antibody. Control experiments used mouse IgG-FITC antibody. Statistics were calculated by one-way ANOVA tests comparing three groups of 4-7 animals. […] Statistics were calculated by student t-test comparing two groups of 4-7 animals.

GlcNAcβ1,3Galβ-O-naphthalenemethanol [AcGnG-NM]
sLe^X expression [1]: inhibit sLe^X expression | cell adhesion to immobilized P-selectin [2]: moderate reduction | levels of blood cell components ([3]; in vivo): not affected | Lymphocytes ([3]; n = 13): 6.1 ± 2.1 K/μL | Neutrophils ([3]; n = 13): 1.5 ± 0.5 K/μL | Platelets ([3]; n = 13): 1031 ± 174 K/μL | Red Blood Cells ([3]; n = 13): 10.5 ± 0.9 M/μL | Total Leukocytes ([3]; n = 13): 7.8 ± 2.6 K/μL | lung tumor foci ([4]; cells pretreated with 50 μM for 6 days, 4 weeks, n=8, p<0.0002): less numerous | tumor size ([4]; treated versus untreated cells): approximately the same | adhesion to recombinant P-selectin [5]: reduced the ability of LS180 cells to adhere | formation of sialyl Lewis X [6]: inhibit the formation of sialyl Lewis X | spontaneous tumor metastasis (BrdU-labeled cells in the lungs) [7]: Inhibits Spontaneous Tumor Metastasis
